Experimental data reported in publication PMC7955114, “Discovery of fungal surface NADases predominantly present in pathogenic species” (Nature Communications, 2021).

Assays:
[1] = target: T1, AfNADase (Aspergillus fumigatus, UniProt Q4WL81); test: X-ray structure, crystals soaked with NAD+; type: binding; conditions: active site of molecule A, EGTA-treated protein, Ca2+ absent, formed from 10 mM NAD+ soak
T1 construct: gene nadA; N-glycosylated at N45, N95, N118; about 30 kDa; homodimer; thumb 20-117, TNT palm domain 117-234; mutants also in 293 cells (C-terminal His6)

[2] = target: T2, NcNADase (Neurospora crassa, UniProt Q7S936); test: HPLC cleavage assay; type: biochemical; conditions: 200 µM substrate, 50 mM Tris-HCl pH 8.0, 0.5 mM CaCl2, 150 mM NaCl, 20 °C (conditions described for AfNADase)
T2 construct: gene NCU07948; secreted from transiently transfected 293 cells, codon-optimized, in pCMV-Flag5a (Flag tag), anti-FLAG purified, N-glycosylated

[3] = target: T1, AfNADase; test: X-ray co-crystal structure; type: binding; conditions: non-hydrolysable substrate analogue, active site of molecule B; 5 mM BAD co-crystallized, 0.1 M sodium acetate pH 5, CaCl2
[4] = system: NC(=O)c1ccc[n+]([C@@H]2O[C@H](COP(=O)(O)OP(=O)(O)OC[C@H]3O[C@@H](n4cnc5c(N)ncnc54)[C@H](O)[C@@H]3O)[C@@H](O)[C@H]2O)c1; test: purified protein; conditions: 500 µM substrate, 0.2 nM enzyme, 25 mM sodium phosphate pH 5.8, 50 mM NaCl, 5 % D2O, 23 °C
[5] = system: NC(=O)c1ccc[n+]([C@@H]2O[C@H](COP(=O)(O)OP(=O)(O)OC[C@H]3O[C@@H](n4cnc5c(N)ncnc54)[C@H](OP(=O)(O)O)[C@@H]3O)[C@@H](O)[C@H]2O)c1; test: purified protein; conditions: 500 µM substrate, 0.2 nM enzyme, 25 mM sodium phosphate pH 5.8, 50 mM NaCl, 5 % D2O, 23 °C
[6] = target: the molecule itself; test: SEC; purified recombinant AfNADase; conditions of the analysis not told in the text (Supplementary Fig. 2C-F)

T2 sequence (Q7S936 20-243): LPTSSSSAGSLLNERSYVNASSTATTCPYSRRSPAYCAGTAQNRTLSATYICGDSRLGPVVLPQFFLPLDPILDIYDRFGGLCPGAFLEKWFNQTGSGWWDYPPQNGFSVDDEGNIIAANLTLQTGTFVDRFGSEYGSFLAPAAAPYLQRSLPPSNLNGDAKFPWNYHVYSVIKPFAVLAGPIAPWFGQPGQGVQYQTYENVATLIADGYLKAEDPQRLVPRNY

Question: How did the “X-ray structure, crystals soaked with NAD+” value ([1]; bound together with nicotinamide) turn out when `Nc1ncnc2c1ncn2[C@@H]1O[C@H](COP(=O)(O)OP(=O)(O)OC[C@H]2OC(O)[C@H](O)[C@@H]2O)[C@@H](O)[C@H]1O` (some centres unmarked) [ADPR] was run?
Answer: The value was “the reaction products, Nam and ADPR, were bound to a putative active site”.

Question: For `NC(=O)c1cccnc1` [Nam], which “X-ray structure, crystals soaked with NAD+” value ([1]; bound together with ADP-ribose) is on record?
Answer: The value was “the reaction products, Nam and ADPR, were bound to a putative active site”.

Question: Which HPLC cleavage assay [2] does the source give for `NC(=O)c1ccc[n+]([C@@H]2O[C@H](COP(=O)(O)OP(=O)(O)OC[C@H]3O[C@@H](n4cnc5c(N)ncnc54)[C@H](O)[C@@H]3O)[C@@H](O)[C@H]2O)c1` [NAD^+] here?
Answer: Its HPLC cleavage assay is “Both AfNADase and NcNADase cleaved NAD^+ and NADP^+”.

Question: Which HPLC cleavage assay [2] does the source give for `NC(=O)c1ccc[n+]([C@@H]2O[C@H](COP(=O)(O)OP(=O)(O)OC[C@H]3O[C@@H](n4cnc5c(N)ncnc54)[C@H](OP(=O)(O)O)[C@@H]3O)[C@@H](O)[C@H]2O)c1` [NADP^+] here?
Answer: Its HPLC cleavage assay is “Both AfNADase and NcNADase cleaved NAD^+ and NADP^+”.

Question: With `NC(=O)c1cccc([C@@H]2O[C@H](COP(=O)(O)OP(=O)(O)OC[C@H]3O[C@@H](n4cnc5c(N)ncnc54)[C@H](O)[C@@H]3O)[C@@H](O)[C@H]2O)c1` [BAD] as the molecule, how does the X-ray co-crystal structure [3] read?
Answer: Its X-ray co-crystal structure is “We were able to co-crystallize AfNADase with BAD bound to the active site”.

Question: How did the Km [4] turn out when AfNADase (Aspergillus fumigatus Af293) was run?
Answer: Its Km is 119.7 ± 40.8 µM.

Question: And the Km [5]?
Answer: Its Km is 106 ± 27.1 µM.

B1: Aspergillus fumigatus NADase (AfNADase), recombinant, from Sf9 insect cells (enzyme)
chain: LQHTEDSLFPARCWPDPCAGITFQNDTYVCGDPRLGPVVLPQKFPLNNELRTYARFGALCPAEFLDKWATDVAPNGTYIYPPANGFALDTEEQPILGNATLPVGMKLDRFGSEYGTFLAPLGAPYIERSLPPSNLNTFDGMYPYNYHVYQVTKEFVVGLGPIAPWFEQPGMGTQFVTYTNVLGLIDDGYLRRLDESEYDEKVEYSNPYTPGPNQ
modifications: N-linked glycosylation at N45, N95 and N118; disulfide bridges C33-80 and C38-50
notes: also called A. fumigatus NADase; gene product AFUA_6G14470
Question: With B1 as the molecule, how does the “stoichiometry N” value [6] read?
Answer: Its value is 2.
